Measured values taken from US20130053357A1, “SKIN IRRITATION SUPPRESSANT AND TRANSDERMAL PREPARATION” (HISAMITSU PHARMACEUTICAL CO., INC., priority 2010, published 2013).
Where a name gives a salt, the structure may show the parent alone. Read-outs that look alike come from different tables or passages of the source.

How the values were obtained:
[1] = tested on: human three-dimensional culture epidermal model (LabCyte EPI-MODEL); test: Suppression by cholesterol of skin irritation mediator production induced by drugs in a human epidermal cell (Experiment 2); type: cell-based
Method: (§1) A human three-dimensional epidermal culture model obtained by multilayer-culturing a human normal epidermal cell (LabCyte EPI-MODEL, manufactured by Japan Tissue Engineering Co., Ltd.) was used. LabCyte is a cultured skin cultured in a transwell. For the experiment, LabCyte was used with the transwell.
(§2) The experiment was conducted as below. First, LabCyte was put into a 24-well assay plate. Then, 1 ml of assay medium (Japan Tissue Engineering Co., Ltd.) was added so that it was brought into contact with a bottom surface of the cultured skin in each well of the 24-well assay plate, and was pre-cultured in an incubator with 5% of carbon dioxide concentration at 37° C. for 1 hour.
(§3) The test solutions of each group were added to the cells, the culture solutions incubated for 48 hours were collected, and a production amount of each skin irritation mediator was measured. The skin irritation mediator was measured by using a commercially available ELISA kit (manufactured by R&D Systems, Inc.). A relative production amount of the skin irritation mediator in each test substance was calculated as below, when the production amount of the skin irritation mediator in the PMA Only Group was set to 100.
Cholesterol was used as a test substance. The drugs shown in Table 2 were used as the cutaneous irritants.
Tests were conducted by the following group composition. • Drug Only Group: A group with addition of only the drug dispersed in a vehicle, as a test solution. Concentrations of the drugs are shown in Table 2. • Drug Plus Cholesterol Group: A group with addition of the drug and 1% by mass of cholesterol which were dispersed in a vehicle, as a test solution.
The experiment was conducted while other conditions were set in the same manner as in Experiment 1.

[2] = tested on: human three-dimensional culture epidermal model (LabCyte EPI-MODEL); test: Production of skin irritation mediators induced by PMA in human three-dimensional epidermal culture model (Experiment 1); type: cell-based; conditions: for activity at 1 %: Homo sapiens, 48 h; for Relative Production Amount of Skin Irritation Mediator when Production Amount in PMA Only Group is Set to 100: IL-1α / Relative Production Amount of Skin Irritation Mediator when Production Amount in PMA Only Group is Set to 100: IL-6 / Relative Production Amount of Skin Irritation Mediator when Production Amount in PMA Only Group is Set to 100: IL-8 / Relative Production Amount of Skin Irritation Mediator when Production Amount in PMA Only Group is Set to 100: PGE2: 48 hours
From the text: Changes in production amounts of skin irritation mediators by test substances were examined when cutaneous irritants were caused to act on a human three-dimensional culture epidermal model.
as §1
As test substances, there were used cholesterol (manufactured by Wako Pure Chemical Industries, Ltd.), β-sitosterol (manufactured by TAMA BIOCHEMICAL CO., LTD.), α-spinasterol (manufactured by ChromaDex, Inc.), ergosterol (manufactured by Wako Pure Chemical Industries, Ltd.), campesterol (manufactured by TAMA BIOCHEMICAL CO., LTD.), glycyrrhizin (manufactured by Wako Pure Chemical Industries, Ltd.), glycyrrhetinic acid (manufactured by Wako Pure Chemical Industries, Ltd.), ginsenoside (manufactured by Wako Pure Chemical Industries, Ltd.), squalene (manufactured by Wako Pure Chemical Industries, Ltd.), squalane (manufactured by Tokyo Chemical Industry Co., Ltd.) and lanosterol (manufactured by ChromaDex, Inc.), which are candidates of a skin irritation suppressant.
As skin irritants, Phorbol 12-Myristate 13-Acetate (PMA, manufactured by Wako Pure Chemical Industries, Ltd.) was used. In addition, as vehicle, olive oil (manufactured by Wako Pure Chemical Industries, Ltd.) was used.
Experiments were conducted by the following group composition. • PMA Only Group: A group with addition of only 0.00001 mol of PMA dispersed in a vehicle, as a test solution. • Test Substance Group: A group with addition of 0.00001 mol of PMA and the test substance which were dispersed in a vehicle, as a test solution.
as §2
Next, a cell survival rate was measured by the MTT method after causing the test solutions of each group to act. Specifically, 50 μL of the test solution of each group was added to the surface of the LabCyte after preculture, was cultured in the incubator with 5% of carbon dioxide concentration at 37° C. for 48 hours, then was transferred to the assay medium comprising 0.5 mg/ml of MTT reagent, and was cultured in the incubator with 5% of carbon oxide level at 37° C. for 3 hours. Then, LabCyte was immersed in 0.3 ml of an isopropanol solution, and the produced blue-purple formazan was extracted for 2 hours. After extraction, an absorbance at 570 nm was measured by a 96 microplate reader. The cell survival rate was calculated as below.
Cell survival rate (%)=(absorbance of Test Substance Group)/(absorbance of PMA Only Group)×100
Subsequently, a production amount of the skin irritation mediator at a test substance concentration with 80% or more of cell survival rate was measured. As skin irritation mediators, PGE2, IL-1α, IL-6, IL-8 were measured.
as §3
Relative production amount=(production amount of the mediator in Test Substance Group)/(production amount of the mediator in PMA Only Group)×100

[3] = Drug Plus Cholesterol Group: drug 8 × 10^−5 M plus 1% by mass of cholesterol
[4] = test substance 0.1 mass % with PMA in olive oil
[5] = Drug Plus Cholesterol Group: drug 1 × 10^−3 M plus 1% by mass of cholesterol
[6] = test substance 1 mass % with PMA in olive oil

Cc1ccc(O)c([C@H](CCN(C(C)C)C(C)C)c2ccccc2)c1 [Tolterodine Tartrate]
Relative Production Amount of Skin Irritation Mediator when Production Amount in Drug Only Group is Set to 100: IL-1α [1, 3]: 48
Relative Production Amount of Skin Irritation Mediator when Production Amount in Drug Only Group is Set to 100: IL-6 [1, 3]: 92
Relative Production Amount of Skin Irritation Mediator when Production Amount in Drug Only Group is Set to 100: IL-8 [1, 3]: 66
Relative Production Amount of Skin Irritation Mediator when Production Amount in Drug Only Group is Set to 100: PGE2 [1, 3]: 58

CC(C)[C@H](C)CC[C@@H](C)[C@H]1CC[C@H]2[C@@H]3CC=C4C[C@@H](O)CC[C@]4(C)[C@H]3CC[C@]12C [Campesterol, campesterol]
Effect on skin irritation mediator production by PMA (in words) [2]: exhibited effects of suppressing the skin irritation mediator production by PMA
activity at 1 % ([2]; read-out: Relative Production Amount of Skin Irritation Mediator when Production Amount in PMA Only Group is Set to 100: IL-1α): 53%
activity at 1 % ([2]; read-out: Relative Production Amount of Skin Irritation Mediator when Production Amount in PMA Only Group is Set to 100: IL-6): 100%
activity at 1 % ([2]; read-out: Relative Production Amount of Skin Irritation Mediator when Production Amount in PMA Only Group is Set to 100: IL-8): 106%
activity at 1 % ([2]; read-out: Relative Production Amount of Skin Irritation Mediator when Production Amount in PMA Only Group is Set to 100: PGE2): 38%

ginsenoside
Effect on skin irritation mediator production by PMA (in words) ([2]; summary of Table 1): exhibited effects of suppressing the skin irritation mediator production by PMA
Relative Production Amount of Skin Irritation Mediator when Production Amount in PMA Only Group is Set to 100: IL-1α [2, 4]: 77
Relative Production Amount of Skin Irritation Mediator when Production Amount in PMA Only Group is Set to 100: IL-6 [2, 4]: 70
Relative Production Amount of Skin Irritation Mediator when Production Amount in PMA Only Group is Set to 100: IL-8 [2, 4]: 90
Relative Production Amount of Skin Irritation Mediator when Production Amount in PMA Only Group is Set to 100: PGE2 [2, 4]: 121

CN(C)CCC[C@@]1(c2ccc(F)cc2)OCc2cc(C#N)ccc21.O=C(O)C(=O)O [(S)-citalopram Oxalate]
Relative Production Amount of Skin Irritation Mediator when Production Amount in Drug Only Group is Set to 100: IL-1α [1, 5]: 61
Relative Production Amount of Skin Irritation Mediator when Production Amount in Drug Only Group is Set to 100: IL-6 [1, 5]: 85
Relative Production Amount of Skin Irritation Mediator when Production Amount in Drug Only Group is Set to 100: IL-8 [1, 5]: 64
Relative Production Amount of Skin Irritation Mediator when Production Amount in Drug Only Group is Set to 100: PGE2 [1, 5]: 46

CC[C@H](CC[C@@H](C)[C@H]1CC[C@H]2[C@@H]3CC=C4C[C@@H](O)CC[C@]4(C)[C@H]3CC[C@]12C)C(C)C [β-sitosterol]
Effect on skin irritation mediator production by PMA (in words) ([2]; summary of Table 1): exhibited effects of suppressing the skin irritation mediator production by PMA
Relative Production Amount of Skin Irritation Mediator when Production Amount in PMA Only Group is Set to 100: IL-1α [2, 6]: 101
Relative Production Amount of Skin Irritation Mediator when Production Amount in PMA Only Group is Set to 100: IL-6 [2, 6]: 100
Relative Production Amount of Skin Irritation Mediator when Production Amount in PMA Only Group is Set to 100: IL-8 [2, 6]: 34
Relative Production Amount of Skin Irritation Mediator when Production Amount in PMA Only Group is Set to 100: PGE2 [2, 6]: 44

Cc1nc2n(c(=O)c1CCN1CCC(c3noc4cc(F)ccc34)CC1)CCCC2 [Risperidone]
Relative Production Amount of Skin Irritation Mediator when Production Amount in Drug Only Group is Set to 100: IL-1α [1, 5]: 14
Relative Production Amount of Skin Irritation Mediator when Production Amount in Drug Only Group is Set to 100: IL-6 [1, 5]: 77
Relative Production Amount of Skin Irritation Mediator when Production Amount in Drug Only Group is Set to 100: IL-8 [1, 5]: 38
Relative Production Amount of Skin Irritation Mediator when Production Amount in Drug Only Group is Set to 100: PGE2 [1, 5]: 80

CC(C)NCC(O)COc1ccc(COCCOC(C)C)cc1 (stereo not drawn) [Bisoprolol Fumarate]
Relative Production Amount of Skin Irritation Mediator when Production Amount in Drug Only Group is Set to 100: IL-1α [1, 5]: 26
Relative Production Amount of Skin Irritation Mediator when Production Amount in Drug Only Group is Set to 100: IL-6 [1, 5]: 72
Relative Production Amount of Skin Irritation Mediator when Production Amount in Drug Only Group is Set to 100: IL-8 [1, 5]: 73
Relative Production Amount of Skin Irritation Mediator when Production Amount in Drug Only Group is Set to 100: PGE2 [1, 5]: 87

CC[C@H](/C=C/[C@@H](C)[C@H]1CC[C@H]2C3=CC[C@H]4C[C@@H](O)CC[C@]4(C)[C@H]3CC[C@]12C)C(C)C [α-spinasterol]
Effect on skin irritation mediator production by PMA (in words) ([2]; summary of Table 1): exhibited effects of suppressing the skin irritation mediator production by PMA
Relative Production Amount of Skin Irritation Mediator when Production Amount in PMA Only Group is Set to 100: IL-1α [2, 4]: 38
Relative Production Amount of Skin Irritation Mediator when Production Amount in PMA Only Group is Set to 100: IL-6 [2, 4]: 109
Relative Production Amount of Skin Irritation Mediator when Production Amount in PMA Only Group is Set to 100: IL-8 [2, 4]: 72
Relative Production Amount of Skin Irritation Mediator when Production Amount in PMA Only Group is Set to 100: PGE2 [2, 4]: 43
